{
  "source": "patent US20260184726A1",
  "about": "“HETEROCYCLIC COMPOUNDS AS KINASE INHIBITORS, COMPOSITIONS, AND METHODS OF USE THEREOF” (JS INNOMED HOLDINGS LTD., priority 2022, published 2026)",
  "key": {"BAF3 cells": {"system": "BAF3 cells", "test": "BAF3 Cell Proliferation Assay (CellTiter-Glo, without RET driven, IL-3)", "format": "cell-based", "settings": "Mus musculus; growth inhibition in BAF3 cells, 72 hours, with IL-3; read-out: BAF3 Cellular Activity", "method_in_brief": "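BAF3 cells in RPMI-1640 with 10% FBS and 1 ng/ml IL-3, seeded 2,000/well and settled 24 h at 37 °C, then exposed to compound at final 10 μM down to 0.0015 μM (0.1% DMSO) for 72 h. Viability by CellTiter-Glo luminescence versus DMSO controls; IC50 from curve fit.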"}, "human KDR kinase": {"molecular_target": "T1, human KDR kinase (Homo sapiens, UniProt P35968)", "T1 construct": "purchased Carna 08-191", "T1 sequence (P35968 20-1356)": "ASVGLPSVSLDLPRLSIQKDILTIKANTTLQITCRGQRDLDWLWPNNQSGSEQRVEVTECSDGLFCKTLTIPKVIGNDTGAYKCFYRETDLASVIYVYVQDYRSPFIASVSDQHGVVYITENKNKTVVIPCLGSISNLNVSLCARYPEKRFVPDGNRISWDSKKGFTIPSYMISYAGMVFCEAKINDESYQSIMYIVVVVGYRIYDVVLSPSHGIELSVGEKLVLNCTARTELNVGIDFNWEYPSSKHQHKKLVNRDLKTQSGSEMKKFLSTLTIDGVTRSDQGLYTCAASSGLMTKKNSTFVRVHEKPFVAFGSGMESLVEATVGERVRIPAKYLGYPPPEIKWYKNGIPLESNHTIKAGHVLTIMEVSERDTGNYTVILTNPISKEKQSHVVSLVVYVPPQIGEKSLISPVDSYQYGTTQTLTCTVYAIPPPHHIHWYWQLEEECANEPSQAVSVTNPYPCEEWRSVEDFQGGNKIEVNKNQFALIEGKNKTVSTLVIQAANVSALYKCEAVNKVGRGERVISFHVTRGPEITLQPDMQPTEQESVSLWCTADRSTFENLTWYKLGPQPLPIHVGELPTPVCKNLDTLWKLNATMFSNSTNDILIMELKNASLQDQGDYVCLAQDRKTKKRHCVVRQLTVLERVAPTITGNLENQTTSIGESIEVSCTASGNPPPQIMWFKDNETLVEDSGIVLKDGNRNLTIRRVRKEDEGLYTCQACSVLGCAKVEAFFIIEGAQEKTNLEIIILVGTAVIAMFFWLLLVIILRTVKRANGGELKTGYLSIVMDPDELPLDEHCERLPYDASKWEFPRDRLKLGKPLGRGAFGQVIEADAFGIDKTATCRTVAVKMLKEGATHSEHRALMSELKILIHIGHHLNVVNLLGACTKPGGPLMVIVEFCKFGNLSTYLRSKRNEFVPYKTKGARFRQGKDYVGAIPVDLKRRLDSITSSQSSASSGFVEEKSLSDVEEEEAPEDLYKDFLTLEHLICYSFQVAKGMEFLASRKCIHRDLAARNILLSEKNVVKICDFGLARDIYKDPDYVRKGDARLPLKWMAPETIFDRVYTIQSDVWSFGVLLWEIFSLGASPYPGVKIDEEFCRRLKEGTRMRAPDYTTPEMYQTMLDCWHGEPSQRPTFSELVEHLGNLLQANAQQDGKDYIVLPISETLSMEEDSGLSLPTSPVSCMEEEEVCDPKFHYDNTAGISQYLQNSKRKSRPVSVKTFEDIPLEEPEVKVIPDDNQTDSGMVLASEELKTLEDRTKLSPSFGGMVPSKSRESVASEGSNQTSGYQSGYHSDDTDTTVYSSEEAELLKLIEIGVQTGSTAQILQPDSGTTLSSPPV", "test": "KDR Kinase Assay (mobility shift assay, ATP at Km)", "format": "biochemical", "settings": "92 μM ATP (Km), read-out: KDR Enzymatic Activity", "experimental": "Compounds were tested by Mobility shift assay with ATP concentration at Km. The assay used human KDR kinase (Carna 08-191). Test compounds were prepared and diluted in DMSO in 3-fold serial dilutions to 50× of the final testing concentrations. The compounds were then further diluted to 5× by the kinase reaction buffer (50 mM HEPES pH 7.5, 0.0015% Brij-35). The enzymatic reaction for compound testing was performed in a white 384-well polypropylene plate (Corning 3573) with a total reaction volume of 25 μl containing 1.2 nM KDR, 3 μM peptide substrate FAM-P22 (GL Biochem 112393), and 92 μM ATP (Sigma A7699-1G). The assay started with loading RET diluted in kinase reaction buffer to wells, followed by addition of equal volume of 5× compounds for 15-min incubation at the room temperature for pre-treatment. The enzymatic reaction was initiated by addition of mixture of the substrate and ATP prepared in kinase reaction buffer. After incubation at 28° C. for one hour, 25 μl of stopper buffer (a mixture of 100 mM HEPES pH 7.5 buffer, 0.015% Brij-35, 50 mM EDTA and 0.2% of coating reagent 3 (Cliper Lifesciences)). After 30 minutes of incubation at room temperature, the plate was read in a Caliper. Percent of control was calculated as the percentage of compound-treated vs 2% DMSO vehicle-treated. The dose-response curves were generated and the IC50s were calculated by nonlinear sigmoid curve fitting using XLFit."}, "human Aurora B kinase": {"molecular_target": "T2, human Aurora B kinase (Homo sapiens, UniProt Q96GD4)", "T2 construct": "purchased Carna 05-102", "T2 sequence (Q96GD4 whole entry)": "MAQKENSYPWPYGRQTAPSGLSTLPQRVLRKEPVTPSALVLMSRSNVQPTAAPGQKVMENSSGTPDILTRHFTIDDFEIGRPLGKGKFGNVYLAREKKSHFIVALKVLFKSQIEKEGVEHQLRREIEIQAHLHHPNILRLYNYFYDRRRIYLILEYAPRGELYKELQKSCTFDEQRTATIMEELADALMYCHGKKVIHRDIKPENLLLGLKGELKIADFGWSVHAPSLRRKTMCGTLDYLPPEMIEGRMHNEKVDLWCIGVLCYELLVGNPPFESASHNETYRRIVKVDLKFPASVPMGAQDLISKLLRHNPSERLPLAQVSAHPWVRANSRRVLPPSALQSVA", "T2 sequence (Q9NQS7 803-918 partner limits assumed)": "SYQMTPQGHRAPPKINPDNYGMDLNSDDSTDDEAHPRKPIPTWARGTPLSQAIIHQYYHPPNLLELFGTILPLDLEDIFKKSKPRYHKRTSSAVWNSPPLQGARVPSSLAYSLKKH", "test": "Aurora B Kinase Assay (mobility shift assay, ATP at Km)", "format": "biochemical", "settings": "15 μM ATP (Km), read-out: AurB Enzymatic Activity", "experimental": "Compounds were tested by Mobility shift assay with ATP concentration at Km. The assay used human Aurora B kinase (Carna 05-102). Test compounds were prepared and diluted in DMSO in 3-fold serial dilutions to 50× of the final testing concentrations. The compounds were then further diluted to 5× by the kinase reaction buffer (50 mM HEPES pH 7.5, 0.0015% Brij-35). The enzymatic reaction for compound testing was performed in a white 384-well polypropylene plate (Corning 3573) with a total reaction volume of 25 μl containing 9 nM Aurora B, 3 μM peptide substrate FAM-P21 (GL Biochem 116370), and 15 μM ATP (Sigma A7699-1G). The assay started with loading Aurora B diluted in kinase reaction buffer to wells, followed by addition of equal volume of 5× compounds for 15-min incubation at the room temperature for pre-treatment. The enzymatic reaction was initiated by addition of mixture of the substrate and ATP prepared in kinase reaction buffer. After incubation at 28° C. for one hour, 25 μl of stopper buffer (a mixture of 100 mM HEPES pH 7.5 buffer, 0.015% Brij-35, 50 mM EDTA and 0.2% of coating reagent 3 (Cliper Lifesciences)). After 30 minutes of incubation at room temperature, the plate was read in a Caliper. Percent of control was calculated as the percentage of compound-treated vs 2% DMSO vehicle-treated. The dose-response curves were generated and the IC50 values were calculated by nonlinear sigmoid curve fitting using XLFit."}},
  "data": [
    {"compound": "COc1ccc(CN2C3CC2CN(c2ccc(-c4cc(-c5ccc(C(C)(C)NC(C)=O)cn5)cn5ncc(C#N)c45)cn2)C3)cn1", "note": "[Example 12, N-(2-(6-(3-cyano-4-(6-(6-((6-methoxypyridin-3-yl)methyl)-3,6-diazabicyclo[3.1.1]heptan-3-yl)pyridin-3-yl)pyrazolo[1,5-a]pyridin-6-yl)pyridin-3-yl)propan-2-yl)acetamide]", "values": [
      {"measurement": "IC50", "setting": "BAF3 cells", "value": 1050, "unit": "nM"},
      {"measurement": "IC50", "setting": "human KDR kinase", "value": 2, "unit": "nM"},
      {"measurement": "IC50", "setting": "human Aurora B kinase", "value": 25.2, "unit": "nM"}
    ]}
  ]
}
